This note sets out measurements from patent publication US20220409629A1, “BENZODIAZEPINE DERIVATIVES FOR TREATING A RESPIRATORY SYNCYTIAL VIRUS (RSV) INFECTION” (priority 2019, published 2022).

In one series the test system is RSV A2. The series can be described thus: RSV plaque reduction assay. In kind it is cell-based, respiratory syncytial virus (RSV). The settings on record: human respiratory syncytial virus, HepG2; Hep-G2 cells, RSV A2, mean of at least two experiments. The method, then:
Compounds were subjected to RSV plaque reduction assays according to the following protocol.
Hep-G2 cells (ECACC, 85011430) were passaged in flasks and seeded in 24-well plates in DMEM containing antibiotics and supplemented with 10% FBS. During inoculation and subsequent incubation, cells were cultured in DMEM containing 2% FBS. 100 plaque forming unit/well of RSV (RSV A2 ECACC, 0709161v) was mixed with eight serial dilutions of compound. Subsequently, 100 μL of the virus/compound mixtures was added to confluent Hep-G2 cell monolayers. The cells and virus/compound mixtures were incubated at 37° C. in a humidified 5% CO2 incubator for 2 h prior to removal of the inoculum and addition of 1 mL of overlay (DMEM containing 2% FBS and 0.8% CMC) containing compound dilutions. The cells and were incubated at 37° C. in a humidified 5% CO2 incubator for 2 days.
Cells were washed with PBS before adding 75/25% v/v EtOH/MeOH, for 3 min. Fixative was removed and plates were washed with PBS. A pre-titrated amount of the primary antibody was added in 200 μL PBS/2% milk powder, and plates incubated for 90 min at 37° C. The plates were washed 3 times with PBS/0.05% Tween20 before addition of rabbit anti-goat horse radish peroxidase in 200 μL PBS/2% milk powder, and incubated for 1 h at 37° C. Following three wash steps with PBS/0.05% Tween20, 200 μL ready-to-use TrueBlue was added and plates were incubated at rt for 10-15 min before washing with water. After removal of water, plates were air-dried in the dark.
Plates were scanned and analysed using the Immunospot S6 Macro analyser, which is equipped with BioSpot analysis software for counting immunostained plaques (virospots). Plaque counts were used to calculate % infection relative to the mean of the plaque count in the virus control wells for RSV. The EC50 value was calculated as 50% reduction in signal, respectively, by interpolation of inhibition curves fitted with a 4-parameter nonlinear regression with a variable slope in Dotmatics. Plaque EC50 and cell toxicity CC50 values are a mean of at least two experiments and figures are rounded to whole units.
On the technique in general: Plaque reduction counts the foci of infection that form in a cell layer.

The nature of a further series: Cell cytotoxicity CC50. As to conditions: human; mean of at least two experiments. In kind it is cell-based.
Series [1] is described as follows: Liver microsomal stability, rat. In kind it is in vitro ADME. As to conditions: pH 7.4; rat liver microsomes, 0.5 mg/mL protein, 1 μM compound, NADPH; >80% remaining at 45 min denoted >140; read-out: Liver Microsomal Stability: t1/2 (min); rat. The method, then: (§1) Compounds were subjected to the following assays to investigate liver microsomal stability, permeability and plasma protein binding.
(§2) Pooled liver microsomes were purchased from a reputable commercial supplier and stored at −80° C. prior to use. Microsomes (final protein concentration 0.5 mg/mL), 0.1 M phosphate buffer pH 7.4 and test compound (final substrate concentration 1 μM; final DMSO concentration 0.25%) were pre-incubated at 37° C. prior to the addition of NADPH (final concentration 1 mM) to initiate the reaction. The final incubation volume was 50 μL. A control incubation was included for each compound tested where 0.1 M phosphate buffer pH 7.4 was added instead of NADPH (minus NADPH). Two control compounds were included with each species. All incubations were performed singularly for each test compound. Each compound was incubated for 0, 5, 15, 30 and 45 min. The control (minus NADPH) was incubated for 45 min only. The reactions were stopped by transferring incubate into acetonitrile at the appropriate time points, in a 1:3 ratio. The termination plates are centrifuged at 3,000 rpm for 20 min at 4° C. to precipitate the protein. Following protein precipitation, the sample supernatants were combined in cassettes of up to 4 compounds, internal standard added, and samples analysed by LC-MS/MS. From a plot of ln peak area ratio (compound peak area/internal standard peak area) against time, the gradient of the line was determined. Subsequently, half-life (t1/2) and intrinsic clearance (CLint) were calculated.

The nature of series [2]: Liver microsomal stability, human. As to conditions: pH 7.4; human liver microsomes, 0.5 mg/mL protein, 1 μM compound, NADPH; >80% remaining at 45 min denoted >140; read-out: Liver Microsomal Stability: t1/2 (min); human. In kind it is in vitro ADME. The method, then: as §1, §2
Series [3] in a line: Liver microsomal stability, dog. In kind it is in vitro ADME. The settings on record: pH 7.4; dog liver microsomes, 0.5 mg/mL protein, 1 μM compound, NADPH; >80% remaining at 45 min denoted >140; read-out: Liver Microsomal Stability: t1/2 (min); dog. The method, then: as §1, §2

The term EC50 denotes the concentration at which the effect is half-maximal. A lower EC50 goes with higher potency in that assay. For orientation: CC50 means the concentration that lowers cell viability or growth by half. The low end stands for harm at low concentration, the high end for better tolerance by the cells. Compound `CCn1ncc(C(=O)N[C@H]2N=C(c3ccccc3)c3ccccc3NC2=O)c1-c1ncc(NC)cc1F` [Example 38, 1-Ethyl-5-(3-fluoro-5-(methylamino)pyridin-2-yl)-N—((S)-2-oxo-5-phenyl-2,3-dihydro-1H-benzo[e][1,4]diazepin-3-yl)-1H-pyrazole-4-carboxamide] returned an EC50 in the series with RSV A2 of 105 nM. The compound also returned a CC50 in “Cell cytotoxicity CC50” above 25 µM. Also, the half-life was 42 min in series [1], 35.2 min in series [2] and 48.6 min in series [3].

Take `CCn1ncc(C(=O)N[C@H]2N=C(c3ccccc3)c3ccccc3NC2=O)c1-c1ncc(NC(C)C)cc1F` [Example 8, 1-Ethyl-5-[3-fluoro-5-(propan-2-ylamino)pyridin-2-yl]-N-[(3S)-2-oxo-5-phenyl-1,3-dihydro-1,4-benzodiazepin-3-yl]pyrazole-4-carboxamide]: in the series with RSV A2, the response was half-maximal at 32 nM (EC50). For the same compound, the CC50 in the series “Cell cytotoxicity CC50” is above 25 µM. Besides, the half-life in series [1] is above 140 min; in series [2], 193 min; in series [3], 104 min.

In the series on RSV A2, `CCCNc1ccc(-c2nn(CC)cc2C(=O)N[C@H]2N=C(c3ccccc3)c3cccc(F)c3NC2=O)c(F)n1` [Example 28, 1-Ethyl-N-[(3S)-9-fluoro-2-oxo-5-phenyl-1,3-dihydro-1,4-benzodiazepin-3-yl]-3-[2-fluoro-6-(propylamino)pyridin-3-yl]pyrazole-4-carboxamide] gave a concentration for a half-maximal effect (EC50) of 39 nM. In “Cell cytotoxicity CC50”, this compound returned a CC50 above 25 µM. Moreover, the half-life in series [1] was 22.7 min; in series [2], 41 min; in series [3] it was 30.8 min.

Compound `O=C(N[C@H]1N=C(c2ccccc2)c2ccccc2NC1=O)c1cnn(C2COC2)c1-c1ccc(NC2CC2)nc1F` [Example 18, 5-[6-(Cyclopropylamino)-2-fluoropyridin-3-yl]-1-(oxetan-3-yl)-N-[(3S)-2-oxo-5-phenyl-1,3-dihydro-1,4-benzodiazepin-3-yl]pyrazole-4-carboxamide] displayed an EC50 with RSV A2 of 83 nM. The same compound showed a CC50 in “Cell cytotoxicity CC50” above 25 µM. In addition, the values for the half-life in series [1], in series [2] and in series [3] were 93.5 min, 144 min and 149 min, respectively.

In the series on RSV A2, `O=C(N[C@H]1N=C(c2ccccc2)c2ccccc2NC1=O)c1cn(C2CCOCC2)nc1-c1ccc(NC2CC2)nc1F` [Example 31, 3-[6-(Cyclopropylamino)-2-fluoropyridin-3-yl]-1-(oxan-4-yl)-N-[(3S)-2-oxo-5-phenyl-1,3-dihydro-1,4-benzodiazepin-3-yl]pyrazole-4-carboxamide] returned an EC50 of 55 nM. In “Cell cytotoxicity CC50”, the CC50 is above 25 µM. Further, the half-life stood at 36.3 min in series [1], 116 min in series [2] and 65.7 min in series [3].

`CCn1ncc(C(=O)N[C@H]2N=C(c3ccccc3)c3ccccc3NC2=O)c1-c1ncc(NC2CC2)cc1F` [Example 7, 5-[5-(Cyclopropylamino)-3-fluoropyridin-2-yl]-1-ethyl-N-[(3S)-2-oxo-5-phenyl-1,3-dihydro-1,4-benzodiazepin-3-yl]pyrazole-4-carboxamide] showed a half-maximal effective concentration (EC50) in the series with RSV A2 of 69 nM. Moreover, in the series “Cell cytotoxicity CC50”, the CC50 was above 25 µM. Also, the half-life in series [1] stood at 595 min; in series [2], 97 min; in series [3], 85.8 min.

`CCn1ncc(C(=O)N[C@H]2N=C(c3ccccc3)c3ccccc3NC2=O)c1-c1ccc(NC(C)C)cc1F` [Example 9, 1-Ethyl-5-[2-fluoro-4-(propan-2-ylamino)phenyl]-N-[(3S)-2-oxo-5-phenyl-1,3-dihydro-1,4-benzodiazepin-3-yl]pyrazole-4-carboxamide] returned a concentration for a half-maximal effect (EC50) in the series with RSV A2 of 73 nM. The same compound had a 50% cytotoxic concentration (CC50) in “Cell cytotoxicity CC50” above 25 µM. Besides, the half-life in series [1] was found to be 141 min; in series [2], 220 min; in series [3] it was 89.1 min.
